The CheMixHub viscosity set
Values joined by “and” are separate entries in the source; they are usually repeats but may differ in a detail not shown here. Identical values can stand only once. ± gives the uncertainty stated by the source.

Row | SMILES | viscosity (293.15 K, 101 kPa) | viscosity (303.15 K, 101.33 kPa) | viscosity (308.15 K, 101 kPa) | viscosity (308.15 K, 101.33 kPa) | viscosity (313.15 K, 101 kPa) | viscosity (318.15 K, 101 kPa) | viscosity (323.15 K, 101 kPa) | viscosity (323.15 K, 101.33 kPa) [mPa·s] | viscosity (298.15 K, 101 kPa) | viscosity (313.15 K, 101.3 kPa) [mPa·s] | viscosity (323.15 K, 101.3 kPa) [mPa·s] | further results
1 | CCCCn1cc[n+](C)c1.F[B-](F)(F)F | 133.5 ± 4.5 mPa·s and 127.6 ± 8.5 mPa·s | 81.85 ± 3.4 mPa·s and 87.7 ± 13 mPa·s | 65 ± 1.3 mPa·s and 61.5 ± 7.9 mPa·s and 58.36 ± 3.5 mPa·s | 63.57 ± 2.6 mPa·s and 72.5 ± 11 mPa·s | 52.2 ± 1.1 mPa·s and 50.52 ± 0.74 mPa·s and 46.22 ± 2.8 mPa·s | 42.6 ± 0.9 mPa·s and 38.72 ± 2.3 mPa·s | 34.52 ± 0.56 mPa·s | 34.8 ± 1.4 | – | – | – | viscosity (293.15 K, 101.33 kPa): 125.3 ± 19 mPa·s; viscosity (295.2 K, 101 kPa): 122.9 ± 19 mPa·s; viscosity (313.15 K, 101.33 kPa): 57.7 ± 8.7 mPa·s
2 | NCCCO | – | – | 18.98 ± 0.34 mPa·s | – | – | 12.35 ± 0.51 mPa·s | – | – | – | – | – | viscosity (303.15 K, 101 kPa): 24.12 ± 0.43 mPa·s
3 | Cc1cccc(C)c1 | 0.5522 ± 0.0085 mPa·s and 0.627 ± 0.013 mPa·s | 0.555 ± 0.006 mPa·s | 0.5329 ± 0.0055 mPa·s | 0.5218 ± 0.0067 mPa·s and 0.542 ± 0.004 mPa·s and 0.527 ± 0.005 mPa·s | 0.4463 ± 0.0073 mPa·s and 0.522 ± 0.014 mPa·s and 0.4923 ± 0.0091 mPa·s | – | 0.3949 ± 0.0068 mPa·s and 0.4488 ± 0.013 mPa·s | – | 0.5821 ± 0.0073 mPa·s and 0.5848 ± 0.016 mPa·s | 0.49 ± 0.014 | 0.439 ± 0.013 | viscosity (293.15 K, 100 kPa): 0.614 ± 0.03 mPa·s; viscosity (298.15 K, 101.3 kPa): 0.586 ± 0.016 mPa·s and 0.58 ± 0.016 mPa·s; viscosity (303 K, 101 kPa): 0.5456 ± 0.0046 mPa·s and 0.5455 ± 0.0046 mPa·s; viscosity (303.15 K, 101.3 kPa): 0.543 ± 0.015 mPa·s and 0.548 ± 0.015 mPa·s and 0.5471 ± 0.015 mPa·s; viscosity (308.15 K, 100 kPa): 0.4712 ± 0.057 mPa·s; viscosity (308.15 K, 101.3 kPa): 0.519 ± 0.015 mPa·s; viscosity (308.5 K, 101 kPa): 0.547 ± 0.015 mPa·s; viscosity (313 K, 101 kPa): 0.4931 ± 0.0042 mPa·s and 0.492 ± 0.0042 mPa·s; viscosity (313.15 K, 100 kPa): 0.492 ± 0.03 mPa·s; viscosity (323 K, 101 kPa): 0.4487 ± 0.0039 mPa·s
4 | CC(O)CC(C)(C)O (configuration not stated) | – | – | 20.29 ± 2 mPa·s and 20.37 ± 2 mPa·s | – | – | 17.79 ± 1.8 mPa·s and 17.73 ± 1.8 mPa·s | – | – | – | – | – | –
5 | ClC(Cl)(Cl)c1ccccc1 | – | – | – | – | – | – | – | – | – | – | – | viscosity (298.15 K, 101.33 kPa): 2.18 ± 0.019 mPa·s
6 | Cc1ccc(O)cc1 | 18.95 ± 0.32 mPa·s | – | – | – | – | 5.795 ± 0.48 mPa·s and 5.292 ± 0.039 mPa·s (2×) | – | 4.62 ± 0.046 | 13.93 ± 0.99 mPa·s and 14.74 ± 0.24 mPa·s | 6.661 ± 0.081 | 4.48 ± 0.056 | –
